Results reported in patent publication US8247211B2, “Glycopeptide antibiotics” (American Cyanamid Company, priority 2001, dated 2012).
≈ marks a conversion by molar mass, not a printed value. Numbered stars: 1 amine (or outer) side, 2 acyl side, 3 side chain; on linkers, the order of the positions; unused ones are H or OH. Square brackets hold non-standard residues; d marks the D form. Peptide text beside a SMILES is read from it. ξ: configuration not given here. X1 = N=C1NCC(C(O)C(N[*:1])C(=O)[*:2])N1C1OC(CO)C(O)C(O)C1O; X6 = N=C1NCC(CC(N[*:1])C(=O)[*:2])N1C1OC(CO)C(O)C(O)C1O; ξEnduracididine(βξ-OH,4'ξ) = N=C1NCC(C(O)C(N)C(=O)O)N1; Tyr(3-NO2) = N[CH](Cc1ccc(O)c([N+](=O)[O-])c1)C(=O)O; Tyr(3,5-Br2) = N[CH](Cc1cc(Br)c(O)c(Br)c1)C(=O)O; X7 = N=C1NCC(CC(N[*:1])C(=O)[*:2])N1; ξPhe(βξ-Me) = CC(c1ccccc1)C(N)C(=O)O

What was measured:
Assay in all cases: In vitro antibacterial evaluation: minimum inhibitory concentration (MIC), broth dilution method
Type in all cases: cell-based
Escherichia coli = settings: broth dilution, 18 hours at 35° C.
Enterococcus sp. = settings: broth dilution, 18 hours at 35° C.
Summary of the method: (§1)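 Inoculum: 5×10^5 CFU/mL. Range: 64-0.06 μg/mL. Medium: Muller-Hinton II […]; NCCLS M7-A2 broth dilution. Endpoint: lowest concentration inhibiting growth. Strains include methicillin-, penicillin- and/or vancomycin-resistant clinical isolates.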

Streptococcus sp. = settings: broth dilution, 18 hours at 35° C.
Summary of the method: as §1

Staphylococcus sp. = settings: strain SMITH GC 4543; broth dilution, 18 hours at 35° C.
Summary of the method: as §1

| Compound | MIC Escherichia coli (GC 4560) (Escherichia coli) | MIC Enterococcus avium (GC 4558) (Enterococcus sp.) | MIC Enterococcus faecalis (ATCC 29212) (Enterococcus sp.) | MIC Enterococcus faecalis (GC 2242) (Enterococcus sp.) | MIC Enterococcus faecalis (GC 2691) (Enterococcus sp.) | MIC Enterococcus faecalis (GC 3059) (Enterococcus sp.) | MIC Enterococcus faecalis (GC 4552) (Enterococcus sp.) | MIC Enterococcus faecalis (GC 4553) (Enterococcus sp.) | MIC Enterococcus faecalis (GC 4554) (Enterococcus sp.) | MIC Enterococcus faecalis (GC 6189) (Enterococcus sp.) | MIC Enterococcus faecium (GC 2243) (Enterococcus sp.) | MIC Enterococcus faecium (GC 4556) (Enterococcus sp.) | MIC Enterococcus faecium (GC 4557) (Enterococcus sp.) | MIC Streptococcus agalactiae (GC 4564) (Streptococcus sp.) | MIC Streptococcus pneumoniae (ATCC 6301) (Streptococcus sp.) | MIC Streptococcus pneumoniae (GC 1894) (Streptococcus sp.) | MIC Streptococcus pneumoniae (GC 4565) (Streptococcus sp.) | MIC Streptococcus pyogenes (GC 4563) (Streptococcus sp.) | MIC Escherichia coli (ATCC 25922) (Escherichia coli) | MIC Escherichia coli (GC 4559) (Escherichia coli) | other results |
| --- | --- | --- | --- | --- | --- | --- | --- | --- | --- | --- | --- | --- | --- | --- | --- | --- | --- | --- | --- | --- | --- |
| CC(c1ccccc1)C1NC(=O)CNC(=O)C(CO)NC(=O)C(C(O)C2CNC(=N)N2C2OC(CO)C(O)C(O)C2O)NC(=O)C(C(O)C2CNC(=N)N2)NC(=O)C(Cc2cc(Br)c(O)c(Br)c2)NC1=O (stereo not drawn) [Example 3, Cyclo[glycyl-β-methylphenylalanyl-3,5-dibromotyrosyl-3-(2-iminoimidazolidin-4-yl)seryl-3-(3-hexopyranosyl-2-iminoimidazolidin-4-yl)serylseryl]] (cyclo(G[ξPhe(βξ-Me)][Tyr(3,5-Br2)][ξEnduracididine(βξ-OH,4'ξ)][X1]S); configuration not given here) | 64 µg/mL (≈ 56.7 µM) |  |  |  |  |  |  |  |  |  |  |  |  |  |  |  |  |  |  |  |  |
| CC(c1ccccc1)C1NC(=O)CNC(=O)C(CO)NC(=O)C(CC2CNC(=N)N2C2OC(CO)C(O)C(O)C2O)NC(=O)C(CC2CNC(=N)N2)NC(=O)C(Cc2ccc(O)c([N+](=O)[O-])c2)NC1=O (stereo not drawn) [Example 10, Cyclo[3-(2-iminoimidazolidin-4-yl)alanyl-3-(3-hexopyranosyl-2-iminoimidazolidin-4-yl)-alanylserylglycyl-β-methylphenylalanyl-3-nitrotyrosyl]] (cyclo(G[ξPhe(βξ-Me)][Tyr(3-NO2)][X7][X6]S); configuration not given here) | >64 µg/mL | >64 µg/mL | >64 µg/mL | >64 µg/mL | >64 µg/mL | >64 µg/mL | >64 µg/mL | >64 µg/mL | >64 µg/mL | >64 µg/mL | >64 µg/mL | >64 µg/mL | >64 µg/mL | >64 µg/mL | >64 µg/mL | >64 µg/mL | >64 µg/mL | >64 µg/mL | >64 µg/mL | >64 µg/mL |  |
| CC(=O)Nc1cc(CC2NC(=O)C(C(C)c3ccccc3)NC(=O)CNC(=O)C(CO)NC(=O)C(C(O)C3CNC(=N)N3C3OC(CO)C(O)C(O)C3O)NC(=O)C(C(O)C3CNC(=N)N3)NC2=O)ccc1O (stereo not drawn) [Example 13, Cyclo[glycyl-β-methylphenylalanyl-3-acetamidotyrosyl-3-(2-iminoimidazolidin-4-yl)seryl-3-(3-hexopyranosyl-2-iminoimidazolidin-4-yl)serylseryl]] | 32 µg/mL (≈ 31.1 µM) | 64 µg/mL (≈ 62.3 µM) | >64 µg/mL | 64 µg/mL (≈ 62.3 µM) | >64 µg/mL | >64 µg/mL | >64 µg/mL | 64 µg/mL (≈ 62.3 µM) | >64 µg/mL | >64 µg/mL | 64 µg/mL (≈ 62.3 µM) | 64 µg/mL (≈ 62.3 µM) | 64 µg/mL (≈ 62.3 µM) | 16 µg/mL (≈ 15.6 µM) | 4 µg/mL (≈ 3.89 µM) | 2 µg/mL (≈ 1.95 µM) | 4 µg/mL (≈ 3.89 µM) | 8 µg/mL (≈ 7.78 µM) | >64 µg/mL | >64 µg/mL | MIC Staphylococcus aureus-SMITH (GC 4543) (Staphylococcus sp.): 64 µg/mL (≈ 62.3 µM); MIC Enterococcus avium (GC 4558) (Enterococcus sp.; Enterococcus avium (GC 4558)): 64 µg/mL (≈ 62.3 µM); MIC Enterococcus faecalis (ATCC 29212) (Enterococcus sp.; Enterococcus faecalis (ATCC 29212)): >64 µg/mL; MIC Enterococcus faecalis (GC 2242) (Enterococcus sp.; Enterococcus faecalis (GC 2242)): 64 µg/mL (≈ 62.3 µM); MIC Enterococcus faecalis (GC 2691) (Enterococcus sp.; Enterococcus faecalis (GC 2691)): >64 µg/mL; MIC Enterococcus faecalis (GC 3059) (Enterococcus sp.; Enterococcus faecalis (GC 3059)): >64 µg/mL; MIC Enterococcus faecalis (GC 4552) (Enterococcus sp.; Enterococcus faecalis (GC 4552)): >64 µg/mL; MIC Enterococcus faecalis (GC 4553) (Enterococcus sp.; Enterococcus faecalis (GC 4553)): 64 µg/mL (≈ 62.3 µM); MIC Enterococcus faecalis (GC 4554) (Enterococcus sp.; Enterococcus faecalis (GC 4554)): >64 µg/mL; MIC Enterococcus faecalis (GC 6189) (Enterococcus sp.; Enterococcus faecalis (GC 6189)): >64 µg/mL; MIC Enterococcus faecium (GC 2243) (Enterococcus sp.; Enterococcus faecium (GC 2243)): 64 µg/mL (≈ 62.3 µM); MIC Enterococcus faecium (GC 4556) (Enterococcus sp.; Enterococcus faecium (GC 4556)): 64 µg/mL (≈ 62.3 µM); MIC Enterococcus faecium (GC 4557) (Enterococcus sp.; Enterococcus faecium (GC 4557)): 64 µg/mL (≈ 62.3 µM); MIC Streptococcus agalactiae (GC 4564) (Streptococcus sp.; Streptococcus agalactiae (GC 4564)): 16 µg/mL (≈ 15.6 µM); MIC Streptococcus pneumoniae (ATCC 6301) (Streptococcus sp.; Streptococcus pneumoniae (ATCC 6301)): 4 µg/mL (≈ 3.89 µM); MIC Streptococcus pneumoniae (GC 1894) (Streptococcus sp.; Streptococcus pneumoniae (GC 1894)): 2 µg/mL (≈ 1.95 µM); MIC Streptococcus pneumoniae (GC 4565) (Streptococcus sp.; Streptococcus pneumoniae (GC 4565)): 4 µg/mL (≈ 3.89 µM); MIC Streptococcus pyogenes (GC 4563) (Streptococcus sp.; Streptococcus pyogenes (GC 4563)): 8 µg/mL (≈ 7.78 µM) |
